Key:
Experiment in all cases: Enzyme Assay
PIK3CG (human) = PIK3CG (human) (UniProt P48736)
PIK3CD (Human) = PIK3CD (Human) (UniProt O00329)
PIK3CA (human) = PIK3CA (human) (UniProt P42336)
PIK3CB (Human) = PIK3CB (Human) (UniProt P42338)
Sequence of PIK3CB (Human) (P42338 whole entry, looked up): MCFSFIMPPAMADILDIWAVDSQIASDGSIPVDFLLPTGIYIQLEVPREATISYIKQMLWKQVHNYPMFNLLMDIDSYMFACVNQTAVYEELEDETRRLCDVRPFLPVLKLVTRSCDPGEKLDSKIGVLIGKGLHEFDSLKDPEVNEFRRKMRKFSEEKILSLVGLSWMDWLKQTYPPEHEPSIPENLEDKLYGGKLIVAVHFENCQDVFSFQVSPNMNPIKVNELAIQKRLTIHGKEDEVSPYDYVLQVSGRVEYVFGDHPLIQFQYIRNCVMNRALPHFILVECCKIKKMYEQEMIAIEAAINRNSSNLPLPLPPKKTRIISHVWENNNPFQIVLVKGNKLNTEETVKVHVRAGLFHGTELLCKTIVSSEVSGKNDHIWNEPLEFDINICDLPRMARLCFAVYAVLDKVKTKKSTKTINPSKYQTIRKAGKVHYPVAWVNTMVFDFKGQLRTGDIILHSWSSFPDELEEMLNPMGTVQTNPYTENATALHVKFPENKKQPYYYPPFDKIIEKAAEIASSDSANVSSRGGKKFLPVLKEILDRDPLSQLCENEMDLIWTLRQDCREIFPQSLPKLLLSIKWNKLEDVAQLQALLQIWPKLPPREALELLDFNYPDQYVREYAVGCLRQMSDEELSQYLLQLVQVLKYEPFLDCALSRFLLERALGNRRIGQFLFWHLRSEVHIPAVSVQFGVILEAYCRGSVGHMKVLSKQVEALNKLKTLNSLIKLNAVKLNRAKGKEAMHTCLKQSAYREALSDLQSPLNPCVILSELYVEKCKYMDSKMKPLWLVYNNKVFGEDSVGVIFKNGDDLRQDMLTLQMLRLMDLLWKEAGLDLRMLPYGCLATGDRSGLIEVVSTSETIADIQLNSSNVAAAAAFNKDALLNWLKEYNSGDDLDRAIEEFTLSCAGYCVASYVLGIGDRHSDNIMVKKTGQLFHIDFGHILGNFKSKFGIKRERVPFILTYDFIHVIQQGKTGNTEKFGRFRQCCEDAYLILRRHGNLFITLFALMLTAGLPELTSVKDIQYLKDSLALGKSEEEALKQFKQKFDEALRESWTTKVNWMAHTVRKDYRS

Sequence of PIK3CD (Human) (O00329 whole entry, looked up): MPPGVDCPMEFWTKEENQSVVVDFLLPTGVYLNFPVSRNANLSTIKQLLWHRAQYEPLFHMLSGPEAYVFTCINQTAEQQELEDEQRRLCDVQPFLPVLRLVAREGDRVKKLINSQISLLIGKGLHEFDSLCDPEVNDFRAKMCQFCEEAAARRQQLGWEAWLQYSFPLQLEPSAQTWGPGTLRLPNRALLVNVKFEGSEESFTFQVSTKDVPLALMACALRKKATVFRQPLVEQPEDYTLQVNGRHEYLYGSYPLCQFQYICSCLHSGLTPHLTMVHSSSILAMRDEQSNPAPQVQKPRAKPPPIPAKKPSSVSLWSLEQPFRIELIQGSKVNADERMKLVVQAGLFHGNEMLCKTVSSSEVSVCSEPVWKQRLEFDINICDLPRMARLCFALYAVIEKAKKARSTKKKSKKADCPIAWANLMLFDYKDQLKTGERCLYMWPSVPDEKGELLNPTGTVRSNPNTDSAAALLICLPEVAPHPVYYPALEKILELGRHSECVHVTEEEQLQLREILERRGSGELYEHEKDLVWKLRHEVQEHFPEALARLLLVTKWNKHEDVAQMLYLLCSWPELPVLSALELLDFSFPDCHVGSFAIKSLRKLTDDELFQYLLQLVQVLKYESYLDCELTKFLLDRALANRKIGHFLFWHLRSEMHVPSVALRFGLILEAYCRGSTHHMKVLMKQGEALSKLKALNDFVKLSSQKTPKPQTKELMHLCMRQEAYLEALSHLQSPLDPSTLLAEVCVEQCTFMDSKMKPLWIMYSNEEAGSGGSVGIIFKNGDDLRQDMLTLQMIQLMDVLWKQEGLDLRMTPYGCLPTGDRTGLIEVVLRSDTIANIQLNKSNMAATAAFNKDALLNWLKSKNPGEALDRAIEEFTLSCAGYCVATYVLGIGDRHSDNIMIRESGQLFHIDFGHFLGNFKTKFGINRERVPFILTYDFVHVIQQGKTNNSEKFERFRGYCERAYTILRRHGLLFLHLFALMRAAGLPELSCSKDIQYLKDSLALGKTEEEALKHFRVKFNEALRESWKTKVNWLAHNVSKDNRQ
Sequence of PIK3CA (human) (P42336 whole entry, looked up): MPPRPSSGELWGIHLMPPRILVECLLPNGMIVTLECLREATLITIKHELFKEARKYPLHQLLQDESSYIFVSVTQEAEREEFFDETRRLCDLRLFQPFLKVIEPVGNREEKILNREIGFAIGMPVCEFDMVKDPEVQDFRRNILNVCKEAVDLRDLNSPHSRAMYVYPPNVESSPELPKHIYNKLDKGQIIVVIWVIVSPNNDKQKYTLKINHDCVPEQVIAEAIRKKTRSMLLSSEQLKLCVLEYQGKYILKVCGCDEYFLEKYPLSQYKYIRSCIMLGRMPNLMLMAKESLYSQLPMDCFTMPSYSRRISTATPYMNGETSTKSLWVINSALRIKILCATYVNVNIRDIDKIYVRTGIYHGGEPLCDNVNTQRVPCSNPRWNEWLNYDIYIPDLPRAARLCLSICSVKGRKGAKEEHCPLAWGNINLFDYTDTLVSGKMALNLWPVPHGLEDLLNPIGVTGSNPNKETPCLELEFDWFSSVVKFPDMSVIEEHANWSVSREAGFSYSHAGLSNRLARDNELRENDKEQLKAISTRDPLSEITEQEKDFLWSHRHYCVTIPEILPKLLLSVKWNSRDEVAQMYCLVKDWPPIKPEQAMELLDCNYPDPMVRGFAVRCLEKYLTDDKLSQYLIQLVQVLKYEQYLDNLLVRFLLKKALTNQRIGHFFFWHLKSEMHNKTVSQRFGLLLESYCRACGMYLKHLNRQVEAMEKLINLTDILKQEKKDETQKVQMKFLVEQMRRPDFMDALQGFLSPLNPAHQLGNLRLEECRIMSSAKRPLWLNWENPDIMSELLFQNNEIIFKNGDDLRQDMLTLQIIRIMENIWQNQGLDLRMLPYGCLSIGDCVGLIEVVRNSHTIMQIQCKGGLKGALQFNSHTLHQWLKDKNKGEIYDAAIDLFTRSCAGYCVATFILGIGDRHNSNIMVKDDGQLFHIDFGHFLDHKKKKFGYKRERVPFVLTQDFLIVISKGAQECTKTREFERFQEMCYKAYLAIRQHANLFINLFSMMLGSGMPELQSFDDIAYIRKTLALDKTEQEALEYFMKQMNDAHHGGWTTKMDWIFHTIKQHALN
Sequence of PIK3CG (human) (P48736 whole entry, looked up): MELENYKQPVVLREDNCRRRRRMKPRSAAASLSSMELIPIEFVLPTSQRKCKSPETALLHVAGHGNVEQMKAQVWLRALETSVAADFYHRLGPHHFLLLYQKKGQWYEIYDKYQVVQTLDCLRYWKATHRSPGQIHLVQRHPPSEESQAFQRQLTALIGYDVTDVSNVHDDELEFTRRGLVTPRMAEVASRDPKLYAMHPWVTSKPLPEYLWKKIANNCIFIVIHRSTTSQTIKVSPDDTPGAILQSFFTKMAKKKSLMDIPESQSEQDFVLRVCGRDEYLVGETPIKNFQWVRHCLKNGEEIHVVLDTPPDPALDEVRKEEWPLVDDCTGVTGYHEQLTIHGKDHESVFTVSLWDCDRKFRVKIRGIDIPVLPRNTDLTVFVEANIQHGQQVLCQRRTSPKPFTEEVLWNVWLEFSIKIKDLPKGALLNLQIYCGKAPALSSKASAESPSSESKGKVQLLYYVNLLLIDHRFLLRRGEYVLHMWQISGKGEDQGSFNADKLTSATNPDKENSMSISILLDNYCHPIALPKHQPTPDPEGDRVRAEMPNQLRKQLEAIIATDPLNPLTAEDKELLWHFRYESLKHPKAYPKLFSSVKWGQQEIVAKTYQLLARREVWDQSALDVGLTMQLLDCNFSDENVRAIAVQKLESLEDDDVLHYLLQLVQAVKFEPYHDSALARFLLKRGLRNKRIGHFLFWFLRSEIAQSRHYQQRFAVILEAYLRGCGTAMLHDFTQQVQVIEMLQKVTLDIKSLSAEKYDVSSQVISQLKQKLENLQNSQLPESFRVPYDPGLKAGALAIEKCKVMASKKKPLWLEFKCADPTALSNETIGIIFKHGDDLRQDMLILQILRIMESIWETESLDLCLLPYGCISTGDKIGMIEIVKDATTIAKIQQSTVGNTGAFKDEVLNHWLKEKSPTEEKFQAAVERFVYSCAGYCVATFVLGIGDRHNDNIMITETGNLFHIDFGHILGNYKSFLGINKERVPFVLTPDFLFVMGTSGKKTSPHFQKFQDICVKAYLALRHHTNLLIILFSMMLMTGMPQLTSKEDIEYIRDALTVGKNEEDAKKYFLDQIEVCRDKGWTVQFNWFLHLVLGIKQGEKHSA

Structure (SMILES) | IC50 (PIK3CD (Human)) [nM] | IC50 (PIK3CA (human)) [nM] | other results
CC1(C)CC(=O)c2sc(N3CCOc4ccccc43)nc2C1 | 830 | – | IC50 (PIK3CG (human)): 610 nM
Cc1c(OCCN2CCN(C)CC2)ccc2c(=O)nc(N3CCOCC3)oc12 | – | ≥ 100000 | –
CC(C)c1nc2ccccc2n1-c1nc(N2CCOCC2)c2nc(OC3CN(C4CCS(=O)(=O)CC4)C3)n(C)c2n1 | – | – | Ki (PIK3CD (Human)): 0.4 nM
N#Cc1c(N2CCOCC2)sc(-c2nc[nH]n2)c1-c1ccc(Cl)cc1Cl | – | 0.35 | –
O=C(c1ccccc1)c1ccc(N2CCOCC2)cc1O | – | – | IC50 (PIK3CB (Human)): 3700 nM

Second part, led by results:

IC50 (PIK3CD (Human)) [nM] | IC50 (PIK3CA (human)) [nM] | Structure (SMILES) | other results
12 | – | CCOC(=O)c1ccc(-c2csc3c(=O)cc(N4CCOCC4)oc23)cc1 | –
3 | – | Cc1c(Cl)cccc1Cn1c(SCC(=O)O)nc(=O)c2sc(N3CCOCC3)nc21 | –
– | 2.4 | CN(C)CCN(C)C(=O)c1ccc(NC(=O)Nc2ccc(-c3nc(N4CCOCC4)c4ccn(CC(F)(F)F)c4n3)cc2)cc1 | –
16 | – | CS(=O)(=O)N1CCN(Cc2cc3nc(-c4cnc(N)nc4)nc(N4CCOCC4)c3s2)CC1 | IC50 (PIK3CB (Human)): 12 nM
– | 35 | CN(C)CCCNC(=O)c1cn2cc(-c3cccc4[nH]ncc34)nc(N3CCOCC3)c2n1 | –

Source: the Kinase Knowledgebase extract (Sharma et al. 2016)
